Assay results taken from ChEMBL document CHEMBL1146419, “Antimicrobial and cytotoxic phenolic glycoside esters from the New Zealand tree Toronia toru” (J Nat Prod, 1997).
In brackets after ≈: the same amount, converted by molar mass.

Experiments:
[1] = tested on: Trichophyton mentagrophytes; assay: Antimicrobial activity against Trichophyton mentagrophytes at 60 ug/disk; format: functional; conditions: read-out: IZ
[2] = tested on: Trichophyton mentagrophytes; assay: Antimicrobial activity against Trichophyton mentagrophytes at 30 ug/disk; format: functional; conditions: read-out: IZ
[3] = tested on: Trichophyton mentagrophytes; assay: Antimicrobial activity against Trichophyton mentagrophytes at 15 ug/disk; format: functional; conditions: read-out: IZ
[4] = Cytotoxicity against african green monkey BSC1 cells at 120 ug/disk; format: cell-based; conditions: chlorocebus aethiops, bsc-1
[5] = Cytotoxicity against african green monkey BSC1 cells at 60 ug/disk; format: cell-based; conditions: chlorocebus aethiops, bsc-1
[6] = Cytotoxicity against african green monkey BSC1 cells at 30 ug/disk; format: cell-based; conditions: chlorocebus aethiops, bsc-1
[7] = Cytotoxicity against african green monkey BSC1 cells at 15 ug/disk; format: cell-based; conditions: chlorocebus aethiops, bsc-1
P388 = assay: Cytotoxicity against mouse P388 cells; format: functional, cell-based
Bacillus subtilis [8] = assay: Antimicrobial activity against Bacillus subtilis at 120 ug/disk; format: functional; conditions: read-out: IZ
Bacillus subtilis [9] = assay: Antimicrobial activity against Bacillus subtilis at 60 ug/disk; format: functional; conditions: read-out: IZ
Bacillus subtilis [10] = assay: Antimicrobial activity against Bacillus subtilis at 30 ug/disk; format: functional; conditions: read-out: IZ
Bacillus subtilis [11] = assay: Antimicrobial activity against Bacillus subtilis at 15 ug/disk; format: functional; conditions: read-out: IZ
Escherichia coli [12] = assay: Antimicrobial activity against Escherichia coli at 120 ug/disk; format: functional; conditions: read-out: IZ
Escherichia coli [13] = assay: Antimicrobial activity against Escherichia coli at 60 ug/disk; format: functional; conditions: read-out: IZ
Escherichia coli [14] = assay: Antimicrobial activity against Escherichia coli at 30 ug/disk; format: functional; conditions: read-out: IZ
Escherichia coli [15] = assay: Antimicrobial activity against Escherichia coli at 15 ug/disk; format: functional; conditions: read-out: IZ
Pseudomonas aeruginosa [16] = assay: Antimicrobial activity against Pseudomonas aeruginosa at 120 ug/disk; format: functional; conditions: read-out: IZ
Pseudomonas aeruginosa [17] = assay: Antimicrobial activity against Pseudomonas aeruginosa at 60 ug/disk; format: functional; conditions: read-out: IZ
Pseudomonas aeruginosa [18] = assay: Antimicrobial activity against Pseudomonas aeruginosa at 30 ug/disk; format: functional; conditions: read-out: IZ
Pseudomonas aeruginosa [19] = assay: Antimicrobial activity against Pseudomonas aeruginosa at 15 ug/disk; format: functional; conditions: read-out: IZ
[20] = tested on: Trichophyton mentagrophytes; assay: Antimicrobial activity against Trichophyton mentagrophytes at 120 ug/disk; format: functional; conditions: read-out: IZ

Work on `C=C1CCOC1=O` [TULIPALINE A] yielded a zone of inhibition at 60 µg/disc [1] of 0 mm, a zone of inhibition at 30 µg/disc [2] of 0 mm and a zone of inhibition at 15 µg/disc [3] of 0 mm. The Activity [4] was 100%, the Activity [5] was 100% and the Activity [6] was 100%. The Activity [7] was 100%, the IC50 (P388) was 0.8 µg/mL (≈ 8.15 µM) and the zone of inhibition at 120 µg/disc (Bacillus subtilis [8]) was 10 mm. The zone of inhibition at 60 µg/disc (Bacillus subtilis [9]) was 0 mm, the zone of inhibition at 30 µg/disc (Bacillus subtilis [10]) was 0 mm and the zone of inhibition at 15 µg/disc (Bacillus subtilis [11]) was 0 mm. The zone of inhibition at 120 µg/disc (Escherichia coli [12]) was 5 mm, the zone of inhibition at 60 µg/disc (Escherichia coli [13]) was 0 mm and the zone of inhibition at 30 µg/disc (Escherichia coli [14]) was 0 mm. For the same molecule, the zone of inhibition at 15 µg/disc (Escherichia coli [15]) was 0 mm, the zone of inhibition at 120 µg/disc (Pseudomonas aeruginosa [16]) was 4 mm and the zone of inhibition at 60 µg/disc (Pseudomonas aeruginosa [17]) was 0 mm. The zone of inhibition at 30 µg/disc (Pseudomonas aeruginosa [18]) was 0 mm, the zone of inhibition at 15 µg/disc (Pseudomonas aeruginosa [19]) was 0 mm and the zone of inhibition at 120 µg/disc [20] was 8 mm.

Work on `Oc1ccc(O)cc1` [HYDROQUINONE] yielded a zone of inhibition at 60 µg/disc [1] of 0 mm, a zone of inhibition at 30 µg/disc [2] of 0 mm and an Activity [4] of 100%. For the same molecule, the Activity [5] was 100%, the Activity [6] was 75% and the IC50 (P388) was 3 µg/mL (≈ 27.2 µM). It also gave a zone of inhibition at 120 µg/disc (Bacillus subtilis [8]) of 9 mm, a zone of inhibition at 60 µg/disc (Bacillus subtilis [9]) of 4 mm and a zone of inhibition at 30 µg/disc (Bacillus subtilis [10]) of 3 mm. For the same molecule, the zone of inhibition at 120 µg/disc (Escherichia coli [12]) was 5 mm, the zone of inhibition at 60 µg/disc (Escherichia coli [13]) was 0 mm and the zone of inhibition at 30 µg/disc (Escherichia coli [14]) was 0 mm. For the same molecule, the zone of inhibition at 120 µg/disc (Pseudomonas aeruginosa [16]) was 3 mm, the zone of inhibition at 60 µg/disc (Pseudomonas aeruginosa [17]) was 3 mm and the zone of inhibition at 30 µg/disc (Pseudomonas aeruginosa [18]) was 2 mm. It also gave a zone of inhibition at 120 µg/disc [20] of 10 mm.

Work on `C=C(CCO)C(=O)OC[C@H]1O[C@@H](Oc2ccc(O)cc2)[C@H](O)[C@@H](O)[C@@H]1O` yielded a zone of inhibition at 60 µg/disc [1] of 0 mm, a zone of inhibition at 30 µg/disc [2] of 0 mm and an Activity [4] of 100%. The Activity [5] was 100%, the Activity [6] was 100% and the Activity [7] was 50%. For the same molecule, the IC50 (P388) was over 25 µg/mL, the zone of inhibition at 120 µg/disc (Bacillus subtilis [8]) was 0 mm and the zone of inhibition at 60 µg/disc (Bacillus subtilis [9]) was 0 mm. The zone of inhibition at 30 µg/disc (Bacillus subtilis [10]) was 0 mm, the zone of inhibition at 120 µg/disc (Escherichia coli [12]) was 0 mm and the zone of inhibition at 60 µg/disc (Escherichia coli [13]) was 0 mm. The zone of inhibition at 30 µg/disc (Escherichia coli [14]) was 0 mm, the zone of inhibition at 120 µg/disc (Pseudomonas aeruginosa [16]) was 0 mm and the zone of inhibition at 60 µg/disc (Pseudomonas aeruginosa [17]) was 0 mm. For the same molecule, the zone of inhibition at 30 µg/disc (Pseudomonas aeruginosa [18]) was 0 mm and the zone of inhibition at 120 µg/disc [20] was 0 mm.

Molecule `C=C(C(=O)OC[C@H]1O[C@@H](Oc2ccc(O)cc2)[C@H](O)[C@@H](O)[C@@H]1O)[C@@H](O)CO` has a zone of inhibition at 60 µg/disc [1] of 0 mm, a zone of inhibition at 30 µg/disc [2] of 0 mm and an Activity [4] of 100%. It also gave an Activity [5] of 100%, an Activity [6] of 50% and an IC50 (P388) of 3 µg/mL (≈ 7.76 µM). For the same molecule, the zone of inhibition at 120 µg/disc (Bacillus subtilis [8]) was 5 mm, the zone of inhibition at 60 µg/disc (Bacillus subtilis [9]) was 1 mm and the zone of inhibition at 30 µg/disc (Bacillus subtilis [10]) was 0 mm. It also gave a zone of inhibition at 120 µg/disc (Escherichia coli [12]) of 4 mm, a zone of inhibition at 60 µg/disc (Escherichia coli [13]) of 2 mm and a zone of inhibition at 30 µg/disc (Escherichia coli [14]) of 0 mm. The zone of inhibition at 120 µg/disc (Pseudomonas aeruginosa [16]) was 3 mm, the zone of inhibition at 60 µg/disc (Pseudomonas aeruginosa [17]) was 1 mm and the zone of inhibition at 30 µg/disc (Pseudomonas aeruginosa [18]) was 0 mm. It also gave a zone of inhibition at 120 µg/disc [20] of 5 mm.

For `OC[C@H]1O[C@@H](Oc2ccc(O)cc2)[C@H](O)[C@@H](O)[C@@H]1O` [ARBUTIN], the Activity [4] was 50%, the IC50 (P388) was over 25 µg/mL and the zone of inhibition at 120 µg/disc (Bacillus subtilis [8]) was 0 mm. The zone of inhibition at 120 µg/disc (Escherichia coli [12]) was 0 mm, the zone of inhibition at 120 µg/disc (Pseudomonas aeruginosa [16]) was 0 mm and the zone of inhibition at 120 µg/disc [20] was 0 mm.
